Measurements: patent CN114790169A, “四氢喹啉相关二环类化合物及其应用” (Guangzhou Institute of Biomedicine and Health of CAS, priority 2016, dated 2017)

Experiments:
[1] = target: T1, glucocorticoid receptor [糖皮质激素受体] (Homo sapiens, UniProt P04150); conditions: literature, in words; cited from earlier work
T1 sequence (P04150 1-777): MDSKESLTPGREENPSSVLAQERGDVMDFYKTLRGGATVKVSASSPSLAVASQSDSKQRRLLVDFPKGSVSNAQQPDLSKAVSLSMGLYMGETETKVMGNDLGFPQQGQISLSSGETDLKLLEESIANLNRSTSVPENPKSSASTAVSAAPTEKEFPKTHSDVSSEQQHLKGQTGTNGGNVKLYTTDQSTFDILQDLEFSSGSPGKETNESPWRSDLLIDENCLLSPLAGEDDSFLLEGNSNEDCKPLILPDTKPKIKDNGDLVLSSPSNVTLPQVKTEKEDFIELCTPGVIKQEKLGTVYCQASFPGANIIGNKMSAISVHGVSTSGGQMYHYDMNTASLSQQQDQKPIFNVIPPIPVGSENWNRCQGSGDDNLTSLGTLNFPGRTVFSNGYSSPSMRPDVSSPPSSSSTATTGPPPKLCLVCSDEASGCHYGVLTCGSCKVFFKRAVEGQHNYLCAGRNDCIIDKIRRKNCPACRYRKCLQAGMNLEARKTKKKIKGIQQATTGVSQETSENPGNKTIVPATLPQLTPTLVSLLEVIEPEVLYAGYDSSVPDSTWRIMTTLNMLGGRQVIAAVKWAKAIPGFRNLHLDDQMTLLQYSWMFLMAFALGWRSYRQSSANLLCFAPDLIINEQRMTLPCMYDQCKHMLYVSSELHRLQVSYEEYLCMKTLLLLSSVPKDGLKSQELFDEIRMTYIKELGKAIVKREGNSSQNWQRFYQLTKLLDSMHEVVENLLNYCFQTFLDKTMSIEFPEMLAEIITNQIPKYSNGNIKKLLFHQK

[2] = target: T2, nuclear receptor RORγ [核受体RORγ] (Homo sapiens, UniProt P51449); assay: Dual-luciferase reporter assay, inhibition of nuclear receptor RORγ at cell level in 293T cells (Gal4-RORγLBD); assay type: cell-based; conditions: for IC50: inhibitory activity against RORγ at cell level, 293T cells, 24 h incubation with compound; for inhibitory activity compared with reference drug: luciferase, RORγ cell level, reference drug T1317
T2 construct: 重组质粒:Gal4-RORγLBD:25ng; expressed in transfected cells; host or cells: 293T (human kidney epithelial cell line)
T2 sequence (P51449 269-508 limits assumed): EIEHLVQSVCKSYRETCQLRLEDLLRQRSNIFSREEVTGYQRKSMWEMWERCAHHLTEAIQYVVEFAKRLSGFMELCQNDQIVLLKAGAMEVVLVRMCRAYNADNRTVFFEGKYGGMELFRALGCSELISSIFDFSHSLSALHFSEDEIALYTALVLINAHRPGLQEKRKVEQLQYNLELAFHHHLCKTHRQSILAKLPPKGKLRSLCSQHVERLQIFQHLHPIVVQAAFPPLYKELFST

[3] = target: T3, RORα (Homo sapiens, UniProt P35398); conditions: literature, in words; cited from earlier work
T3 sequence (P35398 1-523): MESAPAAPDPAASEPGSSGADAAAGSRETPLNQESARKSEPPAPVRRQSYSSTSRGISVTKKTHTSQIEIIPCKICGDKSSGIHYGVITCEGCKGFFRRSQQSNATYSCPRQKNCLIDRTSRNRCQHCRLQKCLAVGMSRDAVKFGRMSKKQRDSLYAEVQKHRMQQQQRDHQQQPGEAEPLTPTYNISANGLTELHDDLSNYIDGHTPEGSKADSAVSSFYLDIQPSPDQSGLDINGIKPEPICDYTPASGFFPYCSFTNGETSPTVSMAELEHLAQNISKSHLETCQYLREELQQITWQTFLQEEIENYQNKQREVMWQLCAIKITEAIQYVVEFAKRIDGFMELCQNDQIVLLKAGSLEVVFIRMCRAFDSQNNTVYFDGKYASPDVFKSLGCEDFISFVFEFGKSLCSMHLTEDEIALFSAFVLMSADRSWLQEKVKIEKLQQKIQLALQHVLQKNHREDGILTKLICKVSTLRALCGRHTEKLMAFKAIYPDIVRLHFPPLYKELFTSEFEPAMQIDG

[4] = system: other nuclear receptors (LXRα/β, FXR, PXR) [其他核受体 (LXRα/β,FXR,PXR)]; conditions: literature, in words; cited from earlier work
[5] = target: T4, RORγ (Homo sapiens, UniProt P51449); conditions: literature, in words; cited from earlier work
T4 sequence (P51449 1-518): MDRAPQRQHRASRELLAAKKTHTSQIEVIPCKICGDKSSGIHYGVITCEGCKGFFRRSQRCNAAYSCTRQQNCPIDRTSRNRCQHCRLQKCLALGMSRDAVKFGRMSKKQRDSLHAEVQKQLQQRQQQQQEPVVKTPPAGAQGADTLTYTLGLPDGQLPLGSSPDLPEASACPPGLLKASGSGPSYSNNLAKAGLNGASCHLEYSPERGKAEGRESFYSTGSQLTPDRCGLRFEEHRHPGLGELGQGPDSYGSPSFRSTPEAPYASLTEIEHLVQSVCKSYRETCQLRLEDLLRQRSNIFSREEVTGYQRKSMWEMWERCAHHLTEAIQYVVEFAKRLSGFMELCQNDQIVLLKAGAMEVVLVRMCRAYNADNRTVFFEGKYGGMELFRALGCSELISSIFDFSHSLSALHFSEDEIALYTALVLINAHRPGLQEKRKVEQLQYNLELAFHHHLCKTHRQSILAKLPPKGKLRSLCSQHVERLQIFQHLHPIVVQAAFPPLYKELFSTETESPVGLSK

[6] = literature, in words; cited from earlier work

| Compound | IC50 [2] [µM] | also measured |
| --- | --- | --- |
| C[C@H]1[C@H](C)CC[C@]2(C(=O)O)CC[C@]3(C)C(=CC[C@@H]4[C@@]5(C)CC[C@H](O)C(C)(C)[C@@H]5CC[C@]43C)[C@H]12 [熊果酸] |  | action on glucocorticoid receptor [1]: 对糖皮质激素受体也有作用 |
| O=S(=O)(Nc1ccc2c(c1)N(S(=O)(=O)Cc1ccc(F)cc1)CCC2)c1ccc(F)cc1F [实施例28, 2,4-二氟-N-(1-((4-氟苄基)磺酰基)-1,2,3,4-四氢喹啉-7-基)苯磺酰胺] | 0.74 |  |
| Cc1ccc(S(=O)(=O)Nc2ccc3c(c2)N(S(=O)(=O)c2ccc(F)cc2)CCC3)s1 [实施例5, N-(1-((4-氟苯基)磺酰基)-1,2,3,4-四氢-7-基)-5-甲基噻吩-2-磺酰胺] | 0.74 |  |
| CC(=O)Nc1nc(C)c(S(=O)(=O)Nc2ccc(C(O)(C(F)(F)F)C(F)(F)F)cc2)s1 [SR1001] |  | action on RORα [3]: 对RORγ和RORα有双重作用的反向激动剂 |
| O=S(=O)(Nc1ccc(C(O)(C(F)(F)F)C(F)(F)F)cc1)c1cccs1 [SR3335] |  | action on RORα [3]: RORα的选择性反向激动剂 |
| COC(=O)c1ccc(CS(=O)(=O)Nc2ccc3c(c2)N(S(=O)(=O)c2ccc(F)cc2)CCC3)cc1 [实施例23, 4-((N-(1-((4-氟苯基)磺酰基)-1,2,3,4-四氢喹啉-7-基)氨磺酰)甲基)苯甲酸甲酯] | 0.94 |  |
| O=S(=O)(c1ccccc1)N(CC(F)(F)F)c1ccc(C(O)(C(F)(F)F)C(F)(F)F)cc1 [T1317] |  | action on other nuclear receptors [4]: 还与至少四种其他核受体 (LXRα/β,FXR,PXR)有作用; action on RORα [3]: 可以与RORγ和RORα结合并调控它们的活性 |
| O=S(=O)(Nc1ccc2c(c1)N(S(=O)(=O)c1ccc(F)cc1)CCO2)c1ccc2c(c1)OCCO2 [实施例12, N-(4-((4-氟苯基)磺酰基)-3,4-二氢-2H-苯并[b][1,4]恶嗪-6-基)-2,3-二氢苯并[b] [1,4]二氧杂环己烯-6-磺酰胺] | 0.69 |  |
| C[C@H]1O[C@@H](O[C@H]2[C@@H](O)C[C@H](O[C@H]3[C@@H](O)C[C@H](O[C@H]4CC[C@@]5(C)[C@H](CC[C@@H]6[C@@H]5C[C@@H](O)[C@]5(C)[C@@H](C7=CC(=O)OC7)CC[C@]65O)C4)O[C@@H]3C)O[C@@H]2C)C[C@H](O)[C@@H]1O [地高辛] |  | action on RORγ [5]: 可以作为RORγ的选择性调控物质; side effects [6]: 有很强的副作用 |
| N-(1-(噻吩-2-基磺酰基)-1,2,3,4-四氢喹啉-6-基)-2,3-二氢苯并[b][1,4]二氧杂环己烯 -6-磺酰胺 [实施例66] | 0.9 |  |
| COC(=O)c1ccc(S(=O)(=O)Nc2ccc3c(c2)N(S(=O)(=O)c2ccc(F)cc2)CCC3)cc1 [实施例19, 4-(N-(1-((4-氟苯基)磺酰基)-1,2,3,4-四氢喹啉-7-基)氨磺酰)苯甲酸甲酯] | 0.88 |  |
| O=S(=O)(Nc1ccc2c(c1)N(S(=O)(=O)c1ccc(F)cc1)CCC2)c1ccc2c(c1)OCCO2 [实施例8, N-(1-((4-氟苯基)磺酰基)-1,2,3,4-四氢喹啉-7-基)-2,3-二氢苯并[b][1,4] 二氧杂环己烯-6-磺酰胺] | 0.79 |  |
| CS(=O)(=O)c1cccc(S(=O)(=O)Nc2ccc3c(c2)N(S(=O)(=O)c2ccc(F)cc2)CCC3)c1 [实施例22, N-(1-((4-氟苯基)磺酰基)-1,2,3,4-四氢喹啉-7-基)-3-(甲基磺酰基)苯磺酰胺] |  | inhibitory activity compared with reference drug [2]: 比对照药活性相当 |
| COC(=O)c1cccc(CS(=O)(=O)Nc2ccc3c(c2)N(S(=O)(=O)c2ccc(F)cc2)CCC3)c1 [实施例24, 3-((N-(1-((4-氟苯基)磺酰基)-1,2,3,4-四氢喹啉-7-基)氨磺酰)甲基)苯甲酸甲酯] |  | inhibitory activity compared with reference drug [2]: 比对照药活性相当 |

Further lines, with some results ahead:

| IC50 [2] [µM] | Compound | also measured |
| --- | --- | --- |
| 0.58 | O=S(=O)(Nc1ccc2c(c1)N(S(=O)(=O)c1cccs1)CCC2)c1ccc2c(c1)OCCO2 [实施例48, N-(1-(噻吩-2-基磺酰基)-1,2,3,4-四氢喹啉-7-基)-2,3-二氢苯并[b][1,4]二氧杂环己烯-6-磺酰胺] |  |
| 0.23 | COC(=O)c1ccccc1S(=O)(=O)N1CCCc2ccc(NS(=O)(=O)c3c(Cl)cccc3Cl)cc21 [实施例54, 2-((7-(2,6-二氯苯基磺酰氨基)-3,4-二氢喹啉-1(2H)-基)磺酰基)苯甲酸甲酯] |  |
| 0.41 | COC(=O)c1ccccc1S(=O)(=O)N1CCCc2ccc(NS(=O)(=O)c3ccc(OC)cc3)cc21 [实施例55, 2-((7-((4-甲氧基苯基)磺酰氨基)-3,4-二氢喹啉-1(2H)-基)磺酰基)苯甲酸甲酯] |  |
| 0.93 | COC(=O)c1cccc(CS(=O)(=O)N2CCCc3ccc(NS(=O)(=O)c4ccc(F)cc4F)cc32)c1 [实施例30, 3-(((7-(2,4-二氟苯基磺酰氨基)-3,4-二氢喹啉-1(2H)-基)磺酰基)甲基)苯甲酸甲酯] |  |
| 0.16 | COC(=O)c1ccccc1S(=O)(=O)N1CCCc2ccc(NS(=O)(=O)c3cc(OC)ccc3OC)cc21 [实施例56, 2-((7-((2,5-二甲氧基苯基)磺酰氨基)-3,4-二氢喹啉-1(2H)-基) 磺酰基)苯甲酸甲酯] |  |
| 0.16 | COC(=O)c1ccccc1S(=O)(=O)N1CCCc2ccc(NS(=O)(=O)c3ccc(F)cc3F)cc21 [实施例31, 2-((7-(2,4-二氟苯基磺酰氨基)-3,4-二氢喹啉-1(2H)-基)磺酰基)苯甲酸甲酯] | inhibitory activity compared with reference drug [2]: 比对照药活性更好 |
| 0.79 | COC(=O)c1ccccc1S(=O)(=O)N1CCCc2ccc(NS(=O)(=O)c3cccc(Cl)c3F)cc21 [实施例53, 2-((7-(3-氯-2-氟苯基磺酰氨基)-3,4-二氢喹啉-1(2H)-基)磺酰基)苯甲酸甲酯] |  |
| 0.7 | COC(=O)c1ccccc1S(=O)(=O)N1CCCc2ccc(NS(=O)(=O)c3ccc4c(c3)OCCO4)cc21 [实施例52, 2-((7-(2,3-二氢苯并[b][1,4]二氧杂环己烯-6-磺酰基)-3,4-二氢喹啉-1(2H) -基)磺酰基)苯甲酸甲酯] |  |
